Measured values as given in patent publication US10294248B2, “Beta-lactamase inhibitors” (VenatoRx Pharmaceuticals, Inc., priority 2013, dated 2019).
pIC50: −log10 of the molar value.

Columns and labels:
[1] = biological target: T1, SHV-5 β-lactamase (Class A ESBL) (Klebsiella pneumoniae, UniProt P0A3M1); assay: β-Lactamase inhibition, SHV-5; type: biochemical
T1 construct: made in house; host or cells: E. coli BL21(DE3)
Outline: (§1)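 Native untagged enzymes expressed in E. coli BL21(DE3), purified by cation exchange and gel filtration. Inhibitor preincubated with enzyme 15 min at 37 °C; hydrolysis followed by absorbance: imipenem at 300 nm for KPC-2, cefotaxime at 260 nm for SHV-5. IC50 as concentration halving initial hydrolysis rate versus inhibitor-free wells.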

[2] = biological target: T2, KPC-2 β-lactamase (Class A carbapenemase) (Klebsiella pneumoniae, UniProt Q9F663); assay: β-Lactamase inhibition, KPC-2; type: biochemical; conditions: imipenem substrate, 300 nm; 15 min preincubation at 37° C., PBS pH 7.4
T2 construct: made in house; host or cells: E. coli BL21(DE3)
T2 sequence (Q9F663 25-293, looked up): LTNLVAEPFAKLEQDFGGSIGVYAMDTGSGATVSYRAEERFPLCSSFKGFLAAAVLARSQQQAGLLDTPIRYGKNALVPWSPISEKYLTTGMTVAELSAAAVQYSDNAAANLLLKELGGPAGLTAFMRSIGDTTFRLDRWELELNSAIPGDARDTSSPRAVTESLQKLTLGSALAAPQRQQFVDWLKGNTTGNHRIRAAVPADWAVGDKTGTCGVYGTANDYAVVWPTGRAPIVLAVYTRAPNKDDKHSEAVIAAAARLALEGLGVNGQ
Outline: as §1

[3] = biological target: T3, VIM-2 metallo-β-lactamase (Class B) (Pseudomonas aeruginosa, UniProt Q9K2N0); assay: β-Lactamase inhibition, VIM-2; type: biochemical; conditions: nitrocefin 100 μM, 486 nm; 15 min preincubation at 37° C., PBS pH 7.4
T3 construct: made in house; host or cells: E. coli BL21(DE3)
Outline: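 IC50 reflects the inhibitor concentration cutting the initial nitrocefin hydrolysis rate by half, compared with control wells lacking inhibitor. Substrate was used at 100 μM final after a 15 min, 37 °C enzyme–inhibitor preincubation.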

[4] = biological target: T4, p99 AmpC β-lactamase (Class C) (Enterobacter cloacae, UniProt P05364); assay: β-Lactamase inhibition, p99 AmpC; type: biochemical
T4 construct: made in house; host or cells: E. coli BL21(DE3)
T4 sequence (P05364 21-381): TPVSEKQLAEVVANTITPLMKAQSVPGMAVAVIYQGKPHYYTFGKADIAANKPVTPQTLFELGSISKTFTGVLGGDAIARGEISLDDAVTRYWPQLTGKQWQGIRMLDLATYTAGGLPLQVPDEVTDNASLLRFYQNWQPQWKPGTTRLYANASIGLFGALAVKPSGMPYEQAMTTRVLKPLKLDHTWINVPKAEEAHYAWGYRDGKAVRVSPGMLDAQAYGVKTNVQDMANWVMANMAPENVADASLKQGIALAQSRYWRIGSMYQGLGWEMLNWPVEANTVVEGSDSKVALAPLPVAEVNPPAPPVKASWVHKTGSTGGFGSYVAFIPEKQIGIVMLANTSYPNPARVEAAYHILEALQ

[5] = biological target: T5, OXA-1 β-lactamase (Class D oxacillinase) (Escherichia coli, UniProt P13661); assay: β-Lactamase inhibition, OXA-1; type: biochemical; conditions: nitrocefin 100 μM, 486 nm; 15 min preincubation at 37° C., PBS pH 7.4
T5 construct: made in house; host or cells: E. coli BL21(DE3)
T5 sequence (P13661 26-276): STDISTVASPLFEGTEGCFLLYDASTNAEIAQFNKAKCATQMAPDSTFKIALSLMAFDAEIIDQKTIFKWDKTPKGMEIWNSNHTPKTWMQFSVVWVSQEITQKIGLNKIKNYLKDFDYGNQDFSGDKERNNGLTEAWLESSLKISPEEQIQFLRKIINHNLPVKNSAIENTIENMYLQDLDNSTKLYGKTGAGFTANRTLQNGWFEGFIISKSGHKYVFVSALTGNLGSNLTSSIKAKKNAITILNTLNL
Outline: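 Untagged enzyme from E. coli BL21(DE3), purified by Capto S then Superdex 75; 15 min 37 °C preincubation with inhibitor; KPC-2 read with imipenem at 300 nm, SHV-5 with cefotaxime at 260 nm, OXA-1 with nitrocefin 100 μM final at 486 nm; 10 min kinetic read; IC50 vs uninhibited wells.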

[6] = system: E. coli ESBL4 expressing CTX-M-15; assay: Broth microdilution MIC, E. coli ESBL4 CTX-M-15; type: cell-based; conditions: fixed 4 μg/mL ceftazidime; CAMHB, 16-20 hours at 37° C.
Outline: (§2)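 Growth inhibition by test compound in presence of a fixed 4 μg/ml β-lactam; CLSI microdilution in CAMHB, visual endpoint after overnight 37° C incubation.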

[7] = system: E. cloacae 144200 expressing Class C P99 AmpC; assay: Broth microdilution MIC, E. cloacae 144200 p99 AmpC; type: cell-based; conditions: fixed 4 μg/mL ceftazidime; CAMHB, 16-20 hours at 37° C.
Outline: as §2

[8] = system: K. pneumoniae 156319 expressing KPC-3; assay: Broth microdilution MIC, K. pneumoniae 156319 KPC-3; type: cell-based; conditions: fixed 4 μg/mL meropenem; CAMHB, 16-20 hours at 37° C.
Outline: as §2

[9] = system: P. aeruginosa Ps296 expressing VIM-2; assay: Broth microdilution MIC, P. aeruginosa Ps296 VIM-2; type: cell-based; conditions: fixed 4 μg/mL meropenem; CAMHB, 16-20 hours at 37° C.
Outline: as §2

[10] = system: K. pneumoniae A-1797 expressing KPC-2 and VIM-4; assay: Broth microdilution MIC, K. pneumoniae A-1797 KPC-2/VIM-4; type: cell-based; conditions: fixed 4 μg/mL meropenem; CAMHB, 16-20 hours at 37° C.
Outline: as §2

[11] = system: S. aureus MSSA-7 producing penicillinase PC-1; assay: Broth microdilution MIC, S. aureus MSSA-7 PC-1; type: cell-based; conditions: fixed 4 μg/mL piperacillin; CAMHB, 16-20 hours at 37° C.
Outline: as §2

T1 sequence (P0A3M1 22-286): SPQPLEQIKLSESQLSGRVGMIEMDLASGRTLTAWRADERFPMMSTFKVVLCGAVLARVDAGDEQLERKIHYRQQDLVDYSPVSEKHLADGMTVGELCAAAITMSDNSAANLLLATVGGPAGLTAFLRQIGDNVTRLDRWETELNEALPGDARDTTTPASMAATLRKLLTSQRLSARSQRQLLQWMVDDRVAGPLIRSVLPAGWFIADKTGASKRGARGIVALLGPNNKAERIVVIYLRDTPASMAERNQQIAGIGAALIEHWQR

Structure (SMILES)	pIC50 [1]	pIC50 [2]	pIC50 [3]	pIC50 [4]	pIC50 [5]	MIC of example compound in presence of fixed β-lactam: Fixed CAZ, E. coli ESBL4 CTX-M-15 [6]	MIC of example compound in presence of fixed β-lactam: Fixed CAZ, E. cl. 144200 p99 AmpC [7]	MIC of example compound in presence of fixed β-lactam: Fixed Mero, K. P. 156319 KPC-3 [8]	MIC of example compound in presence of fixed β-lactam: Fixed Mero, P. aerug. Ps296 VIM-2 [9]	MIC of example compound in presence of fixed β-lactam: Fixed Mero, K. P. A-1797 KPC-2 VIM-4 [10]	MIC of example compound in presence of fixed β-lactam: Fixed Pip, S. aureus MSSA-7 PC-1 [11]
NC1CN(CC(=O)N[C@H]2Cc3cccc(C(=O)O)c3OB2O)CCC1O (stereo partly drawn) [Example 26, 3-[2-(3-Amino-4-hydroxy-piperidin-1-yl)-acetylamino]-2-hydroxy-3,4-dihydro-2H-benzo[e][1,2]oxaborinine-8-carboxylic acid]	6.00 to 7.00	6.00 to 7.00	4.00 to 5.00	> 7.00	6.00 to 7.00	C (the MIC in the presence of <4 μg/mL of a β-lactamase inhibitor)	C (the MIC in the presence of <4 μg/mL of a β-lactamase inhibitor)	C (the MIC in the presence of <4 μg/mL of a β-lactamase inhibitor)	C (the MIC in the presence of <4 μg/mL of a β-lactamase inhibitor)	C (the MIC in the presence of <4 μg/mL of a β-lactamase inhibitor)	A (an MIC of the fixed β-lactam antibiotic in the presence of >32 μg/mL of a β-lactamase inhibitor)
NCCC(=O)NC1CCN(CC(=O)N[C@H]2Cc3cccc(C(=O)O)c3OB2O)CC1 [Example 27, 3-{2-[4-(3-Amino-propionylamino)-piperidin-1-yl]-acetylamino}-2-hydroxy-3,4-dihydro-2H-benzo[e][1,2]oxaborinine-8-carboxylic acid]	6.00 to 7.00	6.00 to 7.00	4.00 to 5.00	> 7.00	6.00 to 7.00	C (the MIC in the presence of <4 μg/mL of a β-lactamase inhibitor)	B (the MIC in the presence of between 8 and 32 μg/mL of a β-lactamase inhibitor)	B (the MIC in the presence of between 8 and 32 μg/mL of a β-lactamase inhibitor)	B (the MIC in the presence of between 8 and 32 μg/mL of a β-lactamase inhibitor)	B (the MIC in the presence of between 8 and 32 μg/mL of a β-lactamase inhibitor)	A (an MIC of the fixed β-lactam antibiotic in the presence of >32 μg/mL of a β-lactamase inhibitor)
NC1CCN(CC(=O)N[C@H]2Cc3cccc(C(=O)O)c3OB2O)CC1N (stereo partly drawn) [Example 28, 3-[2-(3,4-Diamino-piperidin-1-yl)-acetylamino]-2-hydroxy-3,4-dihydro-2H-benzo[e][1,2]oxaborinine-8-carboxylic acid]	4.00 to 5.00	> 7.00	4.00 to 5.00	> 7.00	> 7.00	C (the MIC in the presence of <4 μg/mL of a β-lactamase inhibitor)	C (the MIC in the presence of <4 μg/mL of a β-lactamase inhibitor)	C (the MIC in the presence of <4 μg/mL of a β-lactamase inhibitor)	C (the MIC in the presence of <4 μg/mL of a β-lactamase inhibitor)	B (the MIC in the presence of between 8 and 32 μg/mL of a β-lactamase inhibitor)	C (the MIC in the presence of <4 μg/mL of a β-lactamase inhibitor)
NCC1CN(CC(=O)N[C@H]2Cc3cccc(C(=O)O)c3OB2O)CCC1N (stereo partly drawn) [Example 29, 3-[2-(4-Amino-3-aminomethyl-piperidin-1-yl)-acetylamino]-2-hydroxy-3,4-dihydro-2H-benzo[e][1,2]oxaborinine-8-carboxylic acid]	5.00 to 6.00	6.00 to 7.00	4.00 to 5.00	6.00 to 7.00	6.00 to 7.00	C (the MIC in the presence of <4 μg/mL of a β-lactamase inhibitor)	C (the MIC in the presence of <4 μg/mL of a β-lactamase inhibitor)	C (the MIC in the presence of <4 μg/mL of a β-lactamase inhibitor)	C (the MIC in the presence of <4 μg/mL of a β-lactamase inhibitor)	B (the MIC in the presence of between 8 and 32 μg/mL of a β-lactamase inhibitor)	C (the MIC in the presence of <4 μg/mL of a β-lactamase inhibitor)
NCCNC1CCN(CC(=O)N[C@H]2Cc3cccc(C(=O)O)c3OB2O)CC1 [Example 30, 3-{2-[4-(2-Amino-ethylamino)-piperidin-1-yl]-acetylamino}-2-hydroxy-3,4-dihydro-2H-benzo[e][1,2]oxaborinine-8-carboxylic acid]	> 7.00	> 7.00	5.00 to 6.00	> 7.00	> 7.00	C (the MIC in the presence of <4 μg/mL of a β-lactamase inhibitor)	C (the MIC in the presence of <4 μg/mL of a β-lactamase inhibitor)	C (the MIC in the presence of <4 μg/mL of a β-lactamase inhibitor)	B (the MIC in the presence of between 8 and 32 μg/mL of a β-lactamase inhibitor)	A (an MIC of the fixed β-lactam antibiotic in the presence of >32 μg/mL of a β-lactamase inhibitor)	A (an MIC of the fixed β-lactam antibiotic in the presence of >32 μg/mL of a β-lactamase inhibitor)
NCCN1CCC(CCC(=O)N[C@H]2Cc3cccc(C(=O)O)c3OB2O)CC1 [Example 31, 3-{3-[1-(2-Amino-ethyl)-piperidin-4-yl]-propionylamino}-2-hydroxy-3,4-dihydro-2H-benzo[e][1,2]oxaborinine-8-carboxylic acid]	6.00 to 7.00	> 7.00	5.00 to 6.00	> 7.00	> 7.00	C (the MIC in the presence of <4 μg/mL of a β-lactamase inhibitor)	C (the MIC in the presence of <4 μg/mL of a β-lactamase inhibitor)	C (the MIC in the presence of <4 μg/mL of a β-lactamase inhibitor)	C (the MIC in the presence of <4 μg/mL of a β-lactamase inhibitor)	B (the MIC in the presence of between 8 and 32 μg/mL of a β-lactamase inhibitor)	C (the MIC in the presence of <4 μg/mL of a β-lactamase inhibitor)
